{
  "source": "paper PMC10610545",
  "about": "“Preclinical Evaluation of an Imidazole-Linked Heterocycle for Alzheimer’s Disease” (Pharmaceutics, 2023)",
  "key": {"[1]": {"assay": "Metabolic stability in human liver microsomes", "format": "in vitro ADME", "protocol": "The objective of this study was to evaluate the metabolic stability of LSL33 and its depletion rate in the presence of HLM. This was achieved by incubating LSL33 with microsomes and monitoring parent disappearance using LC/MSMS (Table S6).\nMetabolic stability of LSL33 in human liver microsomes\nThe reaction was initiated by adding HLM (1 mg/mL) to an equal volume of buffer solution containing the test compound and cofactors at the proper concentrations. Reactions without NADPH were also incubated to rule out non-NADPH metabolism or chemical instability in the […]\nincubation course. All reactions were terminated using 60 µL of ice-cold acetonitrile at 0, 5, 15, […]\n30, 45, and 60 min. […] All experiments were conducted in triplicate. Samples were monitored to parent compound disappearance by LC-MS in MRM mode according to a quantitation method for each compound.\nLSL33 was dissolved in DMSO at 0.5 mg/mL. Assay conditions, total incubation volume 400 µL, protein concentration 1 mg/mL, NADPH, 1.3 mM. Preparation of reagents: Test compound, the final concentration in the assay. […]\nprepared by dissolving appropriate amount of N ADPH in 100 mM potassium phosphate buffer. […]\nfrom Sigma-Aldrich, Germany. The equipment needed for the study was Beckman Coulter […]\ninjector, Api4000 Mass Spectrometer.\nBio-Analysis: Samples were monitored for parent compound disappearance by LC-MS in MRM mode according to a previously verified quantitation method for each compound.\nData Analysis: The peak area of analyte was used to calculate the percentage of remaining compound at each incubation time (Table S7). The natural logarithm of the percentage of reamining LSL33 was plotted versus incubation time to calculate the half -life using the following […]\ntime) see Table S8 and Figure S11 . Intrinsic clearance was determined by the following equation:\nCLint H = Ln 2/t1/2 (min) x volume incubation (mL)/microsomal protein (mg) x 45 (MPPGL) 1500 g human liver/ 70 Kg human body weight. Units for CL int are usually expressed as mL/min/mg microsomal protein (table S8), MPPGL = referred to as mg microsomal protein per gram liver.\nThe categories classification\nTable S6. Summary of LC-MS conditions\nIonization Mode Electrospray positive\nSample matrix Microsomes+ NADPH + buffer […]\nMobile phase [Water: Acetonitrile :0.1% Formic Acid]"}, "[2]": {"test_system": "Ngf, Bdnf, Tnf-a, Il-6 gene expression", "assay": "Real-time PCR gene expression in hippocampus of 5XFAD mice", "format": "in vivo, mouse", "settings": "2 mg/Kg", "protocol": "Four-month-old female and male Wt and 5XFAD mice (n = 32) were used to carry out cognitive and molecular analyses. […] The animals had free access to food and water and were kept under standard temperature conditions (22 ± 2 °C) and 12 h/12 h light/dark cycles (300 lx/0 lx). […] After 4 weeks of treatment, cognitive tests, including short- and long-term memory and OLT, were performed to study the effects of treatment on learning and memory. Weight and water consumption were controlled each week, and the LSL33 concentration was adjusted accordingly to reach the optimal dose until euthanasia.\nThree days after cognitive tests, mice were euthanized for protein extraction and RNA and DNA isolation. After euthanasia, the brains were immediately removed from the skulls, and the hippocampi were dissected, frozen, and maintained at −80 °C.\nTotal RNA isolation was carried out using TRIzol® reagent according to the manufacturer’s instructions. The yield, purity, and quality of RNA were determined spectrophotometrically with a NanoDrop™ ND-1000 apparatus (Thermo Scientific, Waltham, MA, USA) and an Agilent 2100B Bioanalyzer (Agilent Technologies, Santa Clara, CA, USA). RNA samples with 260/280 ratios and RNA integrity numbers (RINs) higher than 1.9 and 7.5, respectively, were selected. A reverse transcription-polymerase chain reaction (RT-PCR) was performed. Briefly, 2 μg of messenger RNA (mRNA) was reverse-transcribed using a high-capacity cDNA reverse transcription kit (Applied Biosystems, Foster City, CA, USA).\nSYBR® Green real-time PCR was performed on a StepOnePlus Detection System (Applied Biosystems) with SYBR® Green PCR master mix (Applied Biosystems). Each reaction mixture contained 6.75 μL of complementary DNA (cDNA) (with a concentration of 2 μg), 0.75 μL of each primer (with a concentration of 100 nM), and 6.75 μL of SYBR® Green PCR master mix (2×).\nThe data were analyzed utilizing the comparative cycle threshold (Ct) (ΔΔCt) method, in which the levels of a housekeeping gene are used to normalize differences in sample loading and preparation. Normalization of expression levels was performed with β-actin for SYBR® Green-based real-time PCR. Each sample was analyzed in duplicate, and the results represent the n-fold differences in the transcript levels among different groups.\nFigure 7 Results from an in vivo study of synaptic plasticity markers. (A) Representative protein levels and quantification by WB for PSD95. (B,C) Representative gene expression for Ngf and Bdnf Gene expression levels were determined by real-time PCR. The data correspond to the mean ± SEM (n = 3–5 mice per group). […]\nFigure 8 Results from an in vivo study Neuroinflammatory markers. Representative gene expression for Tnf-a and Il-6 Gene expression levels were determined by real-time PCR. […]"}, "[3]": {"settings": "5XFAD hippocampus, vs 5XFAD Control"}},
  "data": [
    {"compound": "Cl.c1ccc2sc(-c3ncc[nH]3)cc2c1", "note": "[LSL33, 2-(Benzo[b]thiophene-2-yl)-1H-imidazole hydrochloride]", "values": [
      {"measurement": "hepatic clearance category", "setting": "[1]; HLM intrinsic clearance bands", "result": "high"},
      {"measurement": "% Compound Remaining", "setting": "[1]; HLM, minus NADPH, 0 min", "result": "100.0 ± 10.2", "unit": "%"},
      {"measurement": "% Compound Remaining", "setting": "[1]; HLM, minus NADPH, 60 min", "result": "96.6 ± 9.0", "unit": "%"},
      {"measurement": "% Compound Remaining", "setting": "[1]; HLM, plus NADPH, 0 min", "result": "100.0±9.0", "unit": "%"},
      {"measurement": "% Compound Remaining", "setting": "[1]; HLM, plus NADPH, 5 min", "result": "4.6 ± 0.4", "unit": "%"},
      {"measurement": "% Compound Remaining", "setting": "[1]; HLM, plus NADPH, 15 min", "result": "0.1 ± 0.1", "unit": "%"},
      {"measurement": "% Compound Remaining", "setting": "[1]; HLM, plus NADPH, 30 min", "result": "0.2 ± 0.1", "unit": "%"},
      {"measurement": "% Compound Remaining", "setting": "[1]; HLM, plus NADPH, 45 min", "result": "1.3 ± 0.2", "unit": "%"},
      {"measurement": "% Compound Remaining", "setting": "[1]; HLM, plus NADPH, 60 min", "result": "0.2 ± 0.3", "unit": "%"},
      {"measurement": "half-life", "setting": "[1]; human, human liver microsomes, HLM", "result": 1.58, "unit": "min"},
      {"measurement": "Il-6 gene expression", "setting": "[2]; [3]", "result": "clear tendency to reduce both cytokines"},
      {"measurement": "Ngf gene expression", "setting": "[2]; [3]", "result": "significant increase in Ngf gene expression"},
      {"measurement": "Tnf-a gene expression", "setting": "[2]; [3]", "result": "clear tendency to reduce both cytokines"},
      {"measurement": "Bdnf gene expression", "setting": "[2]; both treated groups (Wt and 5XFAD)", "result": "clear tendency to increase"}
    ]}
  ]
}
